According to patent US12077503B2, “Substituted cyclic amides and their use as herbicides” (FMC CORPORATION, priority 2015, dated 2024):

Columns and labels:
Type in all cases: in vivo
[1] = test system: blackgrass (Alopecurus myosuroides); experiment: Test A postemergence; details: Alopecurus myosuroides, post-emergence, 240 h, postemergence, read-out: Blackgrass plant response rating
Method in brief: (§1)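 Seeds sprayed preemergence with a directed soil spray, or plants at 2 to 10 cm height and one- to two-leaf stage sprayed postemergence, with test chemicals in a non-phytotoxic solvent mixture containing surfactant, in loam soil–sand blend. Injury rated visually against untreated controls after about 10 d in greenhouse, 0 (no effect) to 100 (complete control).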

[2] = test system: corn (Zea mays); experiment: Test A postemergence; details: Zea mays, post-emergence, 240 h, postemergence, read-out: Corn plant response rating
Method in brief: as §1

[3] = test system: wheat (Triticum aestivum); experiment: Test A postemergence; details: Triticum aestivum, post-emergence, 240 h, postemergence, read-out: Wheat plant response rating
Method in brief: as §1

[4] = test system: Galium (catchweed bedstraw, Galium aparine); experiment: Test A postemergence; details: Galium, post-emergence, 240 h, postemergence, read-out: Galium plant response rating
Method in brief: as §1

[5] = test system: pigweed (Amaranthus retroflexus); experiment: Test A postemergence; details: Amaranthus retroflexus, post-emergence, 240 h, postemergence, read-out: Pigweed plant response rating
Method in brief: as §1

[6] = test system: ryegrass, Italian (Italian ryegrass, Lolium multiflorum); experiment: Test A postemergence; details: Lolium multiflorum, post-emergence, 240 h, postemergence, read-out: Ryegrass, Italian plant response rating
Method in brief: as §1

[7] = test system: giant foxtail (Setaria faberii); experiment: Test A postemergence; details: Setaria faberi, post-emergence, 240 h, postemergence, read-out: Foxtail, Giant plant response rating
Method in brief: as §1

[8] = test system: ragweed (common ragweed, Ambrosia elatior); experiment: Test A postemergence; details: Ambrosia artemisiifolia, post-emergence, 240 h, postemergence, read-out: Ragweed plant response rating
Method in brief: as §1

[9] = test system: Kochia (Kochia scoparia); experiment: Test A postemergence; details: Bassia scoparia, post-emergence, 240 h, postemergence, read-out: Kochia plant response rating
Method in brief: as §1

[10] = test system: barnyardgrass (Echinochloa crus-galli); experiment: Test A postemergence; details: Echinochloa crus-galli, post-emergence, 240 h, postemergence, read-out: Barnyardgrass plant response rating
Method in brief: as §1

[11] = test system: rice (Oryra sativa); experiment: Test B flooded paddy test; details: Oryza sativa, 250 g ai/ha, Flood; 0 to 100 scale where 0 is no effect and 100 is complete control; read-out: Rice plant response rating
Method in brief: (§2)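 2-leaf plants; pots flooded 3 cm over soil; cpd added to paddy water; depth held; greenhouse 13–15 d; visual rating vs controls, 0 = no effect, 100 = complete control.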

[12] = test system: sedge, umbrella (small-flower umbrella sedge, Cyperus difformis); experiment: Test B flooded paddy test; details: Cyperus difformis, 250 g ai/ha, Flood; 0 to 100 scale where 0 is no effect and 100 is complete control; read-out: Sedge, Umbrella plant response rating
Method in brief: as §2

[13] = test system: ducksalad (Heteranthera limosa); experiment: Test B flooded paddy test; details: Heteranthera limosa, 250 g ai/ha, Flood; 0 to 100 scale where 0 is no effect and 100 is complete control; read-out: Ducksalad plant response rating
Method in brief: as §2

[14] = test system: barnyardgrass (Echinochloa crus-galli); experiment: Test B flooded paddy test; details: Echinochloa crus-galli, 250 g ai/ha, Flood; 0 to 100 scale where 0 is no effect and 100 is complete control; read-out: Barnyardgrass plant response rating
Method in brief: as §2

[15] = test system: pigweed (Amaranthus retroflexus); experiment: Test A preemergence; details: Amaranthus retroflexus, pre-emergence, 240 h, preemergence, 0 to 100 scale where 0 is no effect and 100 is complete control, read-out: Pigweed plant response rating
[16] = 125 g ai/ha, visual injury on 0 to 100 scale (0 no effect, 100 complete control), approx. 10 d
[17] = 500 g ai/ha, 0 to 100 scale, 0 is no effect, 100 is complete control

`CN1C[C@H](c2cc(C(F)F)cs2)[C@@H](C(=O)Nc2cccc(F)c2F)C1=O` [Compound 1121] gave a pest or weed control at 125 g/ha [1, 16] of 40%, a pest or weed control at 500 g/ha [1, 17] of 60% and a plant injury at 125 g/ha [2, 16] of 50%. It also gave a plant injury at 500 g/ha [2, 17] of 90%, a plant injury at 125 g/ha [3, 16] of 30% and a plant injury at 500 g/ha [3, 17] of 60%. The pest or weed control at 125 g/ha [4, 16] was 50%, the pest or weed control at 500 g/ha [4, 17] was 60% and the pest or weed control at 125 g/ha [5, 16] was 20%. For the same compound, the pest or weed control at 500 g/ha [5, 17] was 40%, the pest or weed control at 125 g/ha [6, 16] was 40% and the pest or weed control at 500 g/ha [6, 17] was 70%. It also gave a pest or weed control at 125 g/ha [7, 16] of 90%, a pest or weed control at 500 g/ha [7, 17] of 90% and a pest or weed control at 125 g/ha [8, 16] of 20%. For the same compound, the pest or weed control at 500 g/ha [8, 17] was 40%, the pest or weed control at 125 g/ha [9, 16] was 50% and the pest or weed control at 500 g/ha [9, 17] was 70%. It also gave a pest or weed control at 125 g/ha [10, 16] of 90%, a pest or weed control at 500 g/ha [10, 17] of 90% and a pest or weed control at 250 g/ha [11] of 10%. For the same compound, the pest or weed control at 250 g/ha [12] was 0%, the pest or weed control at 250 g/ha [13] was 100% and the pest or weed control at 250 g/ha [14] was 70%. It also gave a pest or weed control at 125 g/ha ([15]; 125 g ai/ha, approx. 10 d) of 0% and a pest or weed control at 500 g/ha ([15]; 500 g ai/ha) of 50%.
